From ChEMBL document CHEMBL5620341, “CSF1R inhibitors are emerging immunotherapeutic drugs for cancer treatment” (Eur J Med Chem, 2023)
≈ marks a conversion by molar mass, not a printed value.

How the values were obtained:
[1] = target: T1, Vascular endothelial growth factor receptor 2 (Homo sapiens, UniProt P35968); assay: Inhibition of human VEGFR2 in presence of ATP by mobility shift assay
[2] = target: Platelet-derived growth factor receptor beta (Homo sapiens, UniProt P09619); assay: Inhibition of PDGFRbeta (unknown origin)
NFS-60 [3] = assay: Growth inhibition of mouse NFS-60 cells; type: functional
[4] = Metabolic stability in mouse liver microsomes assessed as half life; type: ADME, Microsome
[5] = Unbound fraction in mouse plasma; type: ADME, cell-free
[6] = Solubility of compound in PBS at pH 7.4; type: physicochemical
[7] = target: T2, Macrophage colony-stimulating factor 1 receptor (Homo sapiens, UniProt P07333); assay: Binding affinity to CSF1R (unknown origin) assessed as dissociation constant
T2 sequence (P07333 whole entry): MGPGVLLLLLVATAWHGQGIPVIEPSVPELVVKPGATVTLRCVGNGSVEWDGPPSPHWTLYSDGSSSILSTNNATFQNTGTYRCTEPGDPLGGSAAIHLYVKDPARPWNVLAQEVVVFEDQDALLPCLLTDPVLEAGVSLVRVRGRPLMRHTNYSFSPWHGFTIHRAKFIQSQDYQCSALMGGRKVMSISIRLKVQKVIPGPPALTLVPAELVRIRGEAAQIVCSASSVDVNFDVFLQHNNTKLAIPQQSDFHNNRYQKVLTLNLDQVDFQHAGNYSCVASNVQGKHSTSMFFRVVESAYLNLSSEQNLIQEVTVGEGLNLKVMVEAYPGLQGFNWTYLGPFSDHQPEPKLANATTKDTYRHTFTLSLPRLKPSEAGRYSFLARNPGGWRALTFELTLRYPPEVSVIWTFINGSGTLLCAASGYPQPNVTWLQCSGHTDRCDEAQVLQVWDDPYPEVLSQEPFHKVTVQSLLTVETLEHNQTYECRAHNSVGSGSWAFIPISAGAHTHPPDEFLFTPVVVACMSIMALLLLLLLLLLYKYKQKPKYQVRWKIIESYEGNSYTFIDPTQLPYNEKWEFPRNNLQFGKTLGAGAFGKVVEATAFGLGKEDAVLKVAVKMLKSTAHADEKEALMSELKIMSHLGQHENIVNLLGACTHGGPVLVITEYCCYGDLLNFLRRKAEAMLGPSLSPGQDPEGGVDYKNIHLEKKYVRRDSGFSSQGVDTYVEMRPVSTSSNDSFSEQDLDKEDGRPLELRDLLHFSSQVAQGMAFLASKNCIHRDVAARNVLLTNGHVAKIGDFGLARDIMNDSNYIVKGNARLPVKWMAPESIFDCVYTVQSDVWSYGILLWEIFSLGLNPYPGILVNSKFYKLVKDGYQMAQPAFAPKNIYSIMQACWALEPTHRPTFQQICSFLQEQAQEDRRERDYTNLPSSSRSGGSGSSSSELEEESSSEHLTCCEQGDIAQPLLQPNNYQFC

[8] = target: Receptor-type tyrosine-protein kinase FLT3 (Homo sapiens, UniProt P36888); assay: Binding affinity to human FLT3 assessed as dissociation constant
Sequence of Receptor-type tyrosine-protein kinase FLT3 (Homo sapiens, UniProt P36888) (P36888 27-993 limits assumed, change not shown): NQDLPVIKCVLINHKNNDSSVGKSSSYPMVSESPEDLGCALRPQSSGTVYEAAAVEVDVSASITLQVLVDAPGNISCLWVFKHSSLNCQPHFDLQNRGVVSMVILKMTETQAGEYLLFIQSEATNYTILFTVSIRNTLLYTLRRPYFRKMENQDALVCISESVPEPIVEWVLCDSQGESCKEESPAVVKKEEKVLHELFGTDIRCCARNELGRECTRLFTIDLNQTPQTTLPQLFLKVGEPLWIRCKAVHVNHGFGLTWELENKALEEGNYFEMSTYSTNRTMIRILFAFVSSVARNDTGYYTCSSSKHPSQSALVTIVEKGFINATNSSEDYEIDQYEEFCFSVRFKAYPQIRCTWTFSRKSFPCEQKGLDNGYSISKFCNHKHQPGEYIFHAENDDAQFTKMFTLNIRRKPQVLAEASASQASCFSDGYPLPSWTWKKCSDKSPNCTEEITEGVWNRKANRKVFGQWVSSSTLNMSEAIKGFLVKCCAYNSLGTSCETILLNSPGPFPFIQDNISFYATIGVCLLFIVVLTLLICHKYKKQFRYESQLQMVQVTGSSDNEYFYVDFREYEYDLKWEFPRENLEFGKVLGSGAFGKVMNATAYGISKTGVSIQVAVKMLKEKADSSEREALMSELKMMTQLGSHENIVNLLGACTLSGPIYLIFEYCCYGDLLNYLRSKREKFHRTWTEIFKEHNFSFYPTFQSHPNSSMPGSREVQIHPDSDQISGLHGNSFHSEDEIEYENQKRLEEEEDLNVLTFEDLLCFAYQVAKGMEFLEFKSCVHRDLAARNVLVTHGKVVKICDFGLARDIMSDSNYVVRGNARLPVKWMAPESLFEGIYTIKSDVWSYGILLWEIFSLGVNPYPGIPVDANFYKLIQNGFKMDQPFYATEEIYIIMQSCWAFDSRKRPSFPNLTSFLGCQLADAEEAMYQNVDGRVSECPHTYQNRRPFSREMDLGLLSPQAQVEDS

[9] = Oral bioavailability in CD-1 mouse at 3 mg/kg; type: ADME, organism-based; conditions: in vivo
[10] = Oral bioavailability in Sprague-Dawley rat at 10 mg/kg by LC-MS/MS analysis; type: ADME, organism-based; conditions: in vivo
[11] = Half life in Sprague-Dawley rat at 10 mg/kg, po or 1 mg/kg, iv by LC-MS/MS analysis; type: ADME, organism-based; conditions: in vivo
[12] = Inhibition of FGFR (unknown origin); parameters: species or system Homo sapiens
EMT6 = assay: Antitumor activity against mouse EMT6 cells allografted in BALB/c mouse assessed as reduction in tumor growth inhibition administered via oral gavage relative to control; type: functional
[13] = target: T2, Macrophage colony-stimulating factor 1 receptor; assay: Inhibition of CSF1R (unknown origin) preincubated for 60 mins measured after 1 hr by ADP-Glo assay
[14] = Inhibition of human CSF1R-autoinhibited by discoverX kinome scan assay
[15] = target: T3, Macrophage colony-stimulating factor 1 receptor (Mus musculus, UniProt P09581); assay: Inhibition of CSF1R in mouse BMDM cells; type: cell-based
T3 sequence (P09581 whole entry): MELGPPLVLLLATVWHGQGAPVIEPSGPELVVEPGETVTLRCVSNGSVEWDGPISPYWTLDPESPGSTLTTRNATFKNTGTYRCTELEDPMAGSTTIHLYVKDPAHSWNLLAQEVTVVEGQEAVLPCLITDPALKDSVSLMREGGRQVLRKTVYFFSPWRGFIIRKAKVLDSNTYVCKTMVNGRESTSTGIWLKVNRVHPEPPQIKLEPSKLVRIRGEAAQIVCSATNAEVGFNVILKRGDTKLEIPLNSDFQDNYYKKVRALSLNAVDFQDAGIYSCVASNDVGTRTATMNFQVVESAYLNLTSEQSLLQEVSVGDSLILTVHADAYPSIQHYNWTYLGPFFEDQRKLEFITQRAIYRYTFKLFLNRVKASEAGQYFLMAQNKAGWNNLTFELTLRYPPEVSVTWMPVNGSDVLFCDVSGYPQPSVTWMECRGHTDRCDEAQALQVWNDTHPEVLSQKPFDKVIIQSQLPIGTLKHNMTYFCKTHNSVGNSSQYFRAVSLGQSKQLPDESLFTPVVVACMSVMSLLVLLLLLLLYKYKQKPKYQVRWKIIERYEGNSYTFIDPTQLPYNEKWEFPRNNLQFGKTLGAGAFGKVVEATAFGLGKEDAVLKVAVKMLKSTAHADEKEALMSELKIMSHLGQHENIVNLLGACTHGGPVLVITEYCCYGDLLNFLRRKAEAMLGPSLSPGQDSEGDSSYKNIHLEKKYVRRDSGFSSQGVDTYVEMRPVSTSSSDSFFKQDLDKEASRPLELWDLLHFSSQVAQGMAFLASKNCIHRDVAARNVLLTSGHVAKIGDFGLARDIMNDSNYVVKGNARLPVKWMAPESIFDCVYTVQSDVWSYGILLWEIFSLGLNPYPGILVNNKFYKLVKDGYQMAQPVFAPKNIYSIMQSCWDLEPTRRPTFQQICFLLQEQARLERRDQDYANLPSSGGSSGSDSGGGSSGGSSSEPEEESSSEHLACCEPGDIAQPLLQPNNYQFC

ID8 = assay: Cytotoxicity against mouse ID8 cells; type: functional
[16] = target: Receptor-type tyrosine-protein kinase FLT3 (Homo sapiens, UniProt P36888, ITD); assay: Inhibition of FLT3-ITD mutant phosphorylation in human HEK-293T cells incubated for 2 hrs; type: cell-based
Sequence of Receptor-type tyrosine-protein kinase FLT3 (Homo sapiens, UniProt P36888, ITD) (P36888 whole entry, looked up, stated change not applied): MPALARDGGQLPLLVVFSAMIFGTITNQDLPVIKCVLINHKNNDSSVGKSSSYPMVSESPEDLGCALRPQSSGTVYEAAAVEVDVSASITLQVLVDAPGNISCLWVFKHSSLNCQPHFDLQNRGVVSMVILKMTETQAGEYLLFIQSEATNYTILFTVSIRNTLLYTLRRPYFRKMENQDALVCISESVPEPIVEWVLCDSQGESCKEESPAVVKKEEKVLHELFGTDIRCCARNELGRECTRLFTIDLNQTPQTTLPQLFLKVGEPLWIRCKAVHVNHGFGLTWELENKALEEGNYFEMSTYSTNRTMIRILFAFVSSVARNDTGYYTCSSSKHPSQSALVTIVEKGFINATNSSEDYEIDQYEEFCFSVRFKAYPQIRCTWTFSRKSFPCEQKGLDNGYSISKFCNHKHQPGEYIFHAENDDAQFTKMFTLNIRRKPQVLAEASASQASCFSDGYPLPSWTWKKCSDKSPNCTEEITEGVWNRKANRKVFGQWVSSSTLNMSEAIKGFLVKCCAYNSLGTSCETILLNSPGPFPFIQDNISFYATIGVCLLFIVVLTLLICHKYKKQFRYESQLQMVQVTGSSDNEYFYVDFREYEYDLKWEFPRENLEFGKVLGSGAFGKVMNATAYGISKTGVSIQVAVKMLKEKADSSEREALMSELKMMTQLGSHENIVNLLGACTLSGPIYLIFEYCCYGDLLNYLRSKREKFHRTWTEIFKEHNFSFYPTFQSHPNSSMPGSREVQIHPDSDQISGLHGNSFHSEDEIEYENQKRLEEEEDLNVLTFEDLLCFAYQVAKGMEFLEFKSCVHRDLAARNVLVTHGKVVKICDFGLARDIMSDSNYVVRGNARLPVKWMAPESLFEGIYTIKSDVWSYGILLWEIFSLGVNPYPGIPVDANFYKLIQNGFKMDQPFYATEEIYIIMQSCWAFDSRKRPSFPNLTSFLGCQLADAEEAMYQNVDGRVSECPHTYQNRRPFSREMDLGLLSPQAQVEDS

[17] = target: Mast/stem cell growth factor receptor Kit (Homo sapiens, UniProt P10721); assay: Inhibition of c-KIT (unknown origin) using TK as substrate incubated for 50 mins in presence of ATP by HTRF method
[18] = Cytotoxicity against mouse RAW264.7 cells assessed as reduction in cell viability incubated for 48 hrs by MTT assay; type: toxicity, cell-based
NFS-60 [19] = assay: Cytotoxicity against mouse NFS-60 cells assessed as cell growth inhibition incubated for 72 hrs by Cell titer-glo assay; conditions: NFS-60, 72 h
NFS-60 [20] = assay: Growth inhibition of mouse NFS-60 cells incubated for 72 hrs by Cell titer-glo assay; type: functional
[21] = target: T1, Vascular endothelial growth factor receptor 2; assay: Inhibition of KDR (unknown origin) using peptide as substrate incubated for 90 mins in presence of ATP by HTRF method
[22] = target: RAF proto-oncogene serine/threonine-protein kinase (Homo sapiens, UniProt P04049); assay: Inhibition of c-RAF (unknown origin)
[23] = target: Tyrosine-protein kinase Lck (Homo sapiens, UniProt P06239); assay: Inhibition of LCK (unknown origin)
Sequence of Tyrosine-protein kinase Lck (P06239 whole entry): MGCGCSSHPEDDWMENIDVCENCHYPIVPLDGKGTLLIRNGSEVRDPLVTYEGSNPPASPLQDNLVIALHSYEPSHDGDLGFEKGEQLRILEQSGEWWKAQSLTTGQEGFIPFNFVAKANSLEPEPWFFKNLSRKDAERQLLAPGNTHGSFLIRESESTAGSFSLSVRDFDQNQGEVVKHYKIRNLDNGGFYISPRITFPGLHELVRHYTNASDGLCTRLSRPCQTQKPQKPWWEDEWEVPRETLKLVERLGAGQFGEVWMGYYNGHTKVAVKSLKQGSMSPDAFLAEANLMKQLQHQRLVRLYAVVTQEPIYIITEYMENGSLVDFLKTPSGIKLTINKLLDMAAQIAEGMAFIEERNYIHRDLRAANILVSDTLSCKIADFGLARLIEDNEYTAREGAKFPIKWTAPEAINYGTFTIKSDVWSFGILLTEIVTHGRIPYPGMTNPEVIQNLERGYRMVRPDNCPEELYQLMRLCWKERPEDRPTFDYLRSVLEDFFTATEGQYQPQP

[24] = target: T3, Macrophage colony-stimulating factor 1 receptor; assay: Inhibition of CSF1R autophosphorylation in mouse RAW264.7 cells measured after 4 hrs by Western blot analysis; type: cell-based
CT26 = assay: Antiproliferative activity against mouse CT26 cells assessed as inhibition of cell growth measured after 6 days by MTT assay; type: functional, cell-based; conditions: CT26, 144 h
HUVEC [25] = assay: Antiproliferative activity against VEGF stimulated HUVEC cells assessed as reduction in cell viability incubated for 72 hrs by MTT assay; conditions: Homo sapiens
HUVEC [26] = assay: Antiproliferative activity against FGF stimulated HUVEC cells assessed as reduction in cell viability incubated for 72 hrs by MTT assay; conditions: Homo sapiens
[27] = target: Vascular endothelial growth factor receptor 1 (Homo sapiens, UniProt P17948); assay: Inhibition of VEGFR1 (unknown origin)
[28] = target: T3, Macrophage colony-stimulating factor 1 receptor; assay: Inhibition of CSF1R in mouse RAW264.7 cells assessed as reduction in AKT phosphorylation measured after 4 hrs by Western blot analysis; type: cell-based
[29] = target: T4, Tyrosine-protein kinase Mer (Homo sapiens, UniProt Q12866); assay: Inhibition of human MERTK by discoverX kinome scan assay
T4 sequence (Q12866 whole entry): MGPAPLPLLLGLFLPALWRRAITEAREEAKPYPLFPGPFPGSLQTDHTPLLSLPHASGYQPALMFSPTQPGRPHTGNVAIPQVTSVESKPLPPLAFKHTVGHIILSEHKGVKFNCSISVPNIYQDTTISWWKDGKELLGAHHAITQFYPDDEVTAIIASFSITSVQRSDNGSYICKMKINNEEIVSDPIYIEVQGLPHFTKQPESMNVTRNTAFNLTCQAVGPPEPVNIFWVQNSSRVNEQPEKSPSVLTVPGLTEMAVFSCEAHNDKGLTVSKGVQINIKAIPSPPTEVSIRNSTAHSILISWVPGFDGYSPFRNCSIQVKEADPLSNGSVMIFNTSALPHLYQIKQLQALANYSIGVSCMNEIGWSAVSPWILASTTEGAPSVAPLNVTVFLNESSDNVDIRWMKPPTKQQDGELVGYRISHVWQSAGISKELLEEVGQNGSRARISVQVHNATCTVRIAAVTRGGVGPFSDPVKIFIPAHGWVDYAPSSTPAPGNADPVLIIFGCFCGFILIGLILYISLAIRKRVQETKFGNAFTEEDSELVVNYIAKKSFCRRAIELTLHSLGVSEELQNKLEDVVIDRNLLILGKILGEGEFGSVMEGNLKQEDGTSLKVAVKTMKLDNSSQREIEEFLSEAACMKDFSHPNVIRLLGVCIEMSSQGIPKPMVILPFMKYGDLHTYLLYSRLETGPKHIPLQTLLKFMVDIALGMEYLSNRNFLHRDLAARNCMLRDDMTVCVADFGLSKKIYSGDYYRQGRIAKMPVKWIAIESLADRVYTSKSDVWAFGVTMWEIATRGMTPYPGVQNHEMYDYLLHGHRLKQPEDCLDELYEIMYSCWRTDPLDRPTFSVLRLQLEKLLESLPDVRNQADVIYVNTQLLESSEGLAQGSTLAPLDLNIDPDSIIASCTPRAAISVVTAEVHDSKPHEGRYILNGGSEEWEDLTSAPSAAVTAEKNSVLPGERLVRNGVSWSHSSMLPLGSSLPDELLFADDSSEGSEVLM

[30] = target: T1, Vascular endothelial growth factor receptor 2; assay: Inhibition of VEGFR2 (unknown origin)
MC-38 = assay: Antitumor activity against mouse MC38 cells allografted in C57BL/6 mouse assessed as reduction in tumor volume at 5 to 10 mg/kg administered via oral gavage for 21 days relative to control; type: functional; parameters: scale not given: the % may be the effect or the level left; conditions: dose 5-10 mg/kg, time 21 day

T1 sequence (P35968 whole entry): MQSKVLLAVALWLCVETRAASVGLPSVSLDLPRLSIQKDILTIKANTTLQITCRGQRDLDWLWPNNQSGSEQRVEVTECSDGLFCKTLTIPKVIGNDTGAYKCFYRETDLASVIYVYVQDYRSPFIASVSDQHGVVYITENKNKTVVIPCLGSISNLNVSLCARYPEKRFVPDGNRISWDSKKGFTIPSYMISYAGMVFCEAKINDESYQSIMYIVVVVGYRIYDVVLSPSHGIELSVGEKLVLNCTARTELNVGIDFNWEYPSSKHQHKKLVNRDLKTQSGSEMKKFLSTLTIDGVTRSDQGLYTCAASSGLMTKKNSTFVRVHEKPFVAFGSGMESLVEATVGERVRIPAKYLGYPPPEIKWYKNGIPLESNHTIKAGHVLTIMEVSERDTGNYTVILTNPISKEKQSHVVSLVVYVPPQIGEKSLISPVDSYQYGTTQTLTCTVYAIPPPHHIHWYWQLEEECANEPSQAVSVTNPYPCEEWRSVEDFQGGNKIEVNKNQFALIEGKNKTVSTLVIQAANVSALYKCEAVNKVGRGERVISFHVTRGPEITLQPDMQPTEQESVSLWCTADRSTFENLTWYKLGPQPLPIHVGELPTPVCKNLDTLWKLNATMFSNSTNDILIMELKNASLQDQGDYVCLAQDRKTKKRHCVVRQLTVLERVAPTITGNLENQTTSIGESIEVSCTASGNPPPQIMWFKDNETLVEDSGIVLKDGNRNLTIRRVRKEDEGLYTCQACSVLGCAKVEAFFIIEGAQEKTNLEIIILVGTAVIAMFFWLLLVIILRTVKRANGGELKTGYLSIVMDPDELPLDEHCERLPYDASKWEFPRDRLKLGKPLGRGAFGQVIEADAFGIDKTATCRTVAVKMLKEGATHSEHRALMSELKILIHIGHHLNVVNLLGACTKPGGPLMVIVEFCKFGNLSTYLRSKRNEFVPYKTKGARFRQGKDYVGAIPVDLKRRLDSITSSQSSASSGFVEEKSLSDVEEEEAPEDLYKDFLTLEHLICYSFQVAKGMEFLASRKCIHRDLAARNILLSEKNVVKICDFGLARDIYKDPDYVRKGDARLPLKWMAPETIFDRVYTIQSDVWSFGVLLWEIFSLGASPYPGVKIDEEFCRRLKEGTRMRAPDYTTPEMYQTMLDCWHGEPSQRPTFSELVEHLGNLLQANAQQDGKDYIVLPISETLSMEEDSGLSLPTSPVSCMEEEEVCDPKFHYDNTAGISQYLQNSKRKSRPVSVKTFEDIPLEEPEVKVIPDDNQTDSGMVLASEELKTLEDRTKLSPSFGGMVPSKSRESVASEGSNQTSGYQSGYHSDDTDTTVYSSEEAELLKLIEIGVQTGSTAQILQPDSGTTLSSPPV

Question: With `CNC(=O)c1cccc2cc(Oc3ccnc(NC(=O)c4ccc(N5C[C@@H](C)N[C@@H](C)C5)cc4)c3)ccc12` as the compound, how does the IC50 [1] read?
Answer: < 10 nM

Question: What about the IC50 [2] of the same compound?
Answer: < 10 nM

Question: For `Cc1cccc(Cn2nc(C)c3c(NC(=O)c4csc5c(N)ncnc45)cccc32)n1`, which GI50 (NFS-60 [3]) is on record?
Answer: 80 nM

Question: With `COc1ccc(N(C(=O)Nc2c(C)cccc2C)c2cc(Nc3ccc(N4CCN(C)CC4)cc3)ncn2)c(OC)c1` as the compound, how does the half-life [4] read?
Answer: > 2 h

Question: For `COc1ccc(N2C(=O)N(c3c(C)cccc3Cl)Cc3cnc(Nc4ccc(C5CCN(C)CC5)cc4OC)nc32)nc1`, which fraction unbound [5] is on record?
Answer: 0.06

Question: What about the solubility [6] of the same compound?
Answer: 428 µM (≈ 257 µg/mL)

Question: Which Kd [7] does the source give for `CN1CCN(c2ccc(C(=O)Nc3n[nH]c4cc(OCCOCc5ccc(C(F)(F)F)cc5)ccc34)cc2)CC1` here?
Answer: < 1 nM

Question: What about the Kd [8] of the same compound?
Answer: < 1 nM

Question: With `Cn1cc(-c2cc(Oc3ccc(NC(=O)N4CCC5(CCC5)C4=O)nc3)ccn2)cn1` as the compound, how does the bioavailability [9] read?
Answer: 100%

Question: With `CNc1ccc(-c2cnc(Nc3cnc(C4CC4)nc3)cc2C)c2c1C(=O)NC2` as the compound, how does the bioavailability [10] read?
Answer: 106%

Question: And the half-life [11]?
Answer: 2.53 h

Question: For `COc1cc(OC)c(Cl)c(-c2ccc3c(NC(=O)c4ccc(N5CCNC(C)(C)C5)cc4)n[nH]c3n2)c1Cl`, which IC50 [12] is on record?
Answer: 17.3 nM

Question: For `CCn1cc(OCC(F)(F)F)c(C(=O)Nc2ccc(Oc3ccnc4cc(OC)c(OC)cc34)cn2)n1`, which Kd [7] is on record?
Answer: < 100 nM

Question: And the TGI (EMT6)?
Answer: >50%

Question: Which IC50 [13] does the source give for `Cn1cc(-c2cc(Cc3ccc(NC(=O)NC(=O)C(C)(C)C)nc3)ccn2)cn1` here?
Answer: 23.4 nM

Question: What about the IC50 [14] of the same compound?
Answer: 23.4 nM

Question: Which bioavailability [9] does the source give for `Cn1cc(-c2cc(Oc3ccc(NC(=O)N4CCC5(CCC(F)(F)CC5)C4=O)nc3)ccn2)cn1` here?
Answer: 100%

Question: Which IC50 [15] does the source give for `Cc1cc(NC(=O)c2cccc3cc(-c4cccc5[nH]nc(N)c45)ccc23)ccc1F` here?
Answer: 93 nM

Question: With `Cc1cccc(Cn2nc(C3CC3)c3c(NC(=O)c4cnc5cc(OCCN6CCN(C)CC6)ccn45)cccc32)n1` [ARRY-382] as the compound, how does the ED50 (ID8) read?
Answer: 3 mg/kg

Question: Which results are given for `CC1(C)CC=C(c2nc(C3CC(C)(C)OC(C)(C)C3)ccc2NC(=O)c2nc(C#N)c[nH]2)CC1` [EDICOTINIB]?
Answer: IC50 [16]: 190 nM; IC50 [17]: 20 nM

Question: What does the source list for `Cc1ccc(F)c(NC(=O)Nc2ccc(-c3cccc4[nH]nc(N)c34)cc2)c1` [LINIFANIB]?
Answer: IC50 at 48 h [18]: 8600 nM; IC50 (NFS-60 [19]): 30 nM; GI50 (NFS-60 [20]): 4400 nM

Question: Which results are given for `O=C(Nc1ccc(OC(F)(F)F)cc1)c1sccc1NCc1ccnc2ccccc12` [OSI-930]?
Answer: IC50 [21]: 15 nM; IC50 [22]: 15 nM; IC50 [23]: 15 nM

Question: Which IC50 [24] does the source give for `COc1ncc(F)cc1CNc1ccc(Cc2c[nH]c3ncc(C)cc23)c(F)n1` [PLX-5622] here?
Answer: 26 nM

Question: Which IC50 (CT26) does the source give for `CNC(=O)c1cc(Oc2ccc3nc(N[C@@H]4CCCC[C@H]4O)sc3c2)ccn1` [SOTULETINIB] here?
Answer: 1 nM

Question: For `CCN(CC)CCNC(=O)c1c(C)[nH]c(/C=C2\C(=O)Nc3ccc(F)cc32)c1C` [SUNITINIB], which IC50 [15] is on record?
Answer: 4.1 nM

Question: Which IC50 (HUVEC [25]) does the source give for `Cc1cc2cc(Oc3ccnc(Nc4cccc(CS(=O)(=O)NCCN(C)C)c4)n3)ccc2[nH]1` [SURUFATINIB] here?
Answer: < 50 nM

Question: What about the IC50 (HUVEC [26]) of the same compound?
Answer: < 50 nM

Question: And the IC50 [27]?
Answer: 1 nM

Question: And the IC50 [28]?
Answer: 79 nM

Question: And the IC50 [29]?
Answer: 4 nM

Question: What about the IC50 [30] of the same compound?
Answer: 1 nM

Question: With `Cc1nc(-c2cnc(NC(C)C)n(C)c2=O)ccc1Oc1ccnc(-c2cnn(C)c2)c1` [VIMSELTINIB] as the compound, how does the Activity (MC-38) read?
Answer: 67%
